Experimental data as given in US20240317721A1, “PYRAZOLYL DERIVATIVES AS INHIBITORS OF THE KRAS MUTANT PROTEIN” (NOVARTIS AG, priority 2021, published 2024).

The molecules below were run against KRasG12C (M1-K169, biotinylated on the N-terminus) (Homo sapiens (Human), UniProt P01116, G12C) (assay: Covalent competition assay: scintillation proximity assay (SPA) quantifying covalent modification of KRASG12C). Conditions: competition with radiolabeled covalent probe (Compound B/Compound A), 2 hours incubation, 10 nM KRasG12C.
Type: binding
Summary of the method: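 Test compounds compete with a radiolabeled covalent probe for modification of N-terminally biotinylated KRasG12C(M1-K169):GDP, final 10 nM protein, 25 nM radio-ligand, 475 nM unlabelled ligand, 2 h with agitation in 20 mM Tris-HCl pH 7.5, 150 mM NaCl, 0.1 mM MgCl2, 0.01% Tween-20.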

| IC50 | SMILES |
| --- | --- |
| 971 nM | C=CC(=O)N1CC2(CC(n3nc(N4CCN(C5CCOCC5)CC4(C)C)c(-c4c(Cl)c(Cl)cc5[nH]ncc45)c3C)C2)C1 (single isomer, unassigned) [Example 140a, 1-(6-(4-(5,6-dichloro-1H-indazol-4-yl)-3-(2,2-dimethyl-4-(tetrahydro-2H-pyran-4-yl)piperazin-1-yl)-5-methyl-1H-pyrazol-1-yl)-2-azaspiro[3.3]heptan-2-yl)prop-2-en-1-one] |
| 104 nM | C=CC(=O)N1CC2(CC(n3nc(N4CCN(C5COC5)CC45CCOC5)c(-c4c(Cl)c(C)cc5[nH]ncc45)c3C)C2)C1 (single isomer, unassigned) [Example 141b, 1-(6-(4-(5-chloro-6-methyl-1H-indazol-4-yl)-5-methyl-3-(9-(oxetan-3-yl)-2-oxa-6,9-diazaspiro[4.5]decan-6-yl)-1H-pyrazol-1-yl)-2-azaspiro[3.3]heptan-2-yl)prop-2-en-1-one] |
| 204 nM | C=CC(=O)N1CC2(CC(n3nc(N4CCN(C5COC5)CC45CCOC5)c(-c4c(Cl)c(C)cc5[nH]ncc45)c3C)C2)C1 (single isomer, unassigned) [Example 142a, 1-(6-(4-(5-chloro-6-methyl-1H-indazol-4-yl)-5-methyl-3-(9-(oxetan-3-yl)-2-oxa-6,9-diazaspiro[4.5]decan-6-yl)-1H-pyrazol-1-yl)-2-azaspiro[3.3]heptan-2-yl)prop-2-en-1-one] |
| > 5000 nM | C=CC(=O)N1CC2(CC(n3nc(N4CCN(C5CCOCC5)C[C@@]4(C)C(F)F)c(-c4c(Cl)c(C)cc5[nH]ncc45)c3C)C2)C1 (single isomer, unassigned) [Example 146a] |
| 31 nM | C=CC(=O)N1CC2(CC(n3nc(N4CCN(C5CCOCC5)C[C@@]4(C)C(F)F)c(-c4c(Cl)c(C)cc5[nH]ncc45)c3C)C2)C1 (single isomer, unassigned) [Example 146b] |
| 923 nM | C=CC(=O)N1CC2(CC(n3nc(N4CCN(C5COC5)C[C@]4(C)COC)c(-c4c(Cl)c(C)cc5[nH]ncc45)c3C)C2)C1 (single isomer, unassigned) [Example 147b] |
| > 5000 nM | C=CC(=O)N1CC2(CC(n3nc(N4CCN(C5COC5)C[C@@]4(C)COC)c(-c4c(Cl)c(C)cc5[nH]ncc45)c3C)C2)C1 (single isomer, unassigned) [Example 148a] |
| 766 nM | C=CC(=O)N1CC2(CC(n3nc(N4CCN(C5CCOCC5)C[C@]4(C)COC)c(-c4c(Cl)c(C)cc5[nH]ncc45)c3C)C2)C1 (single isomer, unassigned) [Example 149a] |
| 46 nM | C=CC(=O)N1CC2(CC(n3nc(N4CCN(C5CCOCC5)C[C@]4(C)C(F)F)c(-c4c(Cl)c(C)cc5[nH]ncc45)c3C)C2)C1 (single isomer, unassigned) [Example 151a] |
| 45 nM | C=CC(=O)N1CC2(CC(n3nc(N4CCN(C5COC5)CC4(CC)CC)c(-c4c(Cl)c(C)cc5[nH]ncc45)c3C)C2)C1 (single isomer, unassigned) [Example 152b, 1-(6-(4-(5-chloro-6-methyl-1H-indazol-4-yl)-3-(2,2-diethyl-4-(oxetan-3-yl)piperazin-1-yl)-5-methyl-1H-pyrazol-1-yl)-2-azaspiro[3.3]heptan-2-yl)prop-2-en-1-one] |
| 4000 nM | C=CC(=O)N1CC2(CC(n3nc(N4CCN(C5COC5)C[C@]4(C)CC)c(-c4c(Cl)c(Cl)cc5[nH]ncc45)c3C)C2)C1 (single isomer, unassigned) [Example 155a] |
| 5 nM | C=CC(=O)N1CC2(CC(n3nc(N4CCN(C5COC5)C[C@]4(C)CC)c(-c4c(Cl)c(Cl)cc5[nH]ncc45)c3C)C2)C1 (single isomer, unassigned) [Example 155b] |

Continued, molecule first:

| SMILES | IC50 |
| --- | --- |
| C=CC(=O)N1CC2(CC(n3nc(N4CCN(C5CCOCC5)CC4(C)C)c(-c4c(Cl)c(Cl)cc5[nH]ncc45)c3C)C2)C1 (single isomer, unassigned) [Example 140b, 1-(6-(4-(5,6-dichloro-1H-indazol-4-yl)-3-(2,2-dimethyl-4-(tetrahydro-2H-pyran-4-yl)piperazin-1-yl)-5-methyl-1H-pyrazol-1-yl)-2-azaspiro[3.3]heptan-2-yl)prop-2-en-1-one] | 18 nM |
| C=CC(=O)N1CC2(CC(n3nc(N4CCN(C5COC5)C[C@@]4(C)CC)c(-c4c(Cl)c(C)cc5[nH]ncc45)c3C)C2)C1 (single isomer, unassigned) [Example 143a] | > 5000 nM |
| C=CC(=O)N1CC2(CC(n3nc(N4CCN(C5COC5)C[C@@]4(C)CC)c(-c4c(Cl)c(C)cc5[nH]ncc45)c3C)C2)C1 (single isomer, unassigned) [Example 143b] | 39 nM |
| C=CC(=O)N1CC2(CC(n3nc(N4CCN(C5COC5)CC45CCCC5)c(-c4c(Cl)c(C)cc5[nH]ncc45)c3C)C2)C1 (single isomer, unassigned) [Example 144a, 1-(6-(4-(5-chloro-6-methyl-1H-indazol-4-yl)-5-methyl-3-(9-(oxetan-3-yl)-6,9-diazaspiro[4.5]decan-6-yl)-1H-pyrazol-1-yl)-2-azaspiro[3.3]heptan-2-yl)prop-2-en-1-one] | > 5000 nM |
| C=CC(=O)N1CC2(CC(n3nc(N4CCN(C5COC5)CC45CCCC5)c(-c4c(Cl)c(C)cc5[nH]ncc45)c3C)C2)C1 (single isomer, unassigned) [Example 144b, 1-(6-(4-(5-chloro-6-methyl-1H-indazol-4-yl)-5-methyl-3-(9-(oxetan-3-yl)-6,9-diazaspiro[4.5]decan-6-yl)-1H-pyrazol-1-yl)-2-azaspiro[3.3]heptan-2-yl)prop-2-en-1-one] | 10 nM |
| C=CC(=O)N1CC2(CC(n3nc(N4CCN(C5CCOCC5)CC45CCC5)c(-c4c(Cl)c(Cl)cc5[nH]ncc45)c3C)C2)C1 (single isomer, unassigned) [Example 145a, 1-(6-(4-(5,6-dichloro-1H-indazol-4-yl)-5-methyl-3-(8-(tetrahydro-2H-pyran-4-yl)-5,8-diazaspiro[3.5]nonan-5-yl)-1H-pyrazol-1-yl)-2-azaspiro[3.3]heptan-2-yl)prop-2-en-1-one] | 4300 nM |
| C=CC(=O)N1CC2(CC(n3nc(N4CCN(C5CCOCC5)CC45CCC5)c(-c4c(Cl)c(Cl)cc5[nH]ncc45)c3C)C2)C1 (single isomer, unassigned) [Example 145b, 1-(6-(4-(5,6-dichloro-1H-indazol-4-yl)-5-methyl-3-(8-(tetrahydro-2H-pyran-4-yl)-5,8-diazaspiro[3.5]nonan-5-yl)-1H-pyrazol-1-yl)-2-azaspiro[3.3]heptan-2-yl)prop-2-en-1-one] | 12 nM |
| C=CC(=O)N1CC2(CC(n3nc(N4CCN(C5COC5)C[C@]4(C)COC)c(-c4c(Cl)c(C)cc5[nH]ncc45)c3C)C2)C1 (single isomer, unassigned) [Example 147a] | 8 nM |
| C=CC(=O)N1CC2(CC(n3nc(N4CCN(C5COC5)C[C@@]4(C)COC)c(-c4c(Cl)c(C)cc5[nH]ncc45)c3C)C2)C1 (single isomer, unassigned) [Example 148b] | 295 nM |
| C=CC(=O)N1CC2(CC(n3nc(N4CCN(C5CCOCC5)C[C@]4(C)COC)c(-c4c(Cl)c(C)cc5[nH]ncc45)c3C)C2)C1 (single isomer, unassigned) [Example 149b] | 9 nM |
| C=CC(=O)N1CC2(CC(n3nc(N4CCN(C5CCOCC5)C[C@]4(C)COC)c(-c4c(Cl)c(Cl)cc5[nH]ncc45)c3C)C2)C1 (single isomer, unassigned) [Example 150a] | 252 nM |
| C=CC(=O)N1CC2(CC(n3nc(N4CCN(C5CCOCC5)C[C@]4(C)COC)c(-c4c(Cl)c(Cl)cc5[nH]ncc45)c3C)C2)C1 (single isomer, unassigned) [Example 150b] | < 5 nM |
| C=CC(=O)N1CC2(CC(n3nc(N4CCN(C5CCOCC5)C[C@]4(C)C(F)F)c(-c4c(Cl)c(C)cc5[nH]ncc45)c3C)C2)C1 (single isomer, unassigned) [Example 151b] | > 5000 nM |
| C=CC(=O)N1CC2(CC(n3nc(N4CCN(C5COC5)CC4(CC)CC)c(-c4c(Cl)c(C)cc5[nH]ncc45)c3C)C2)C1 (single isomer, unassigned) [Example 152a, 1-(6-(4-(5-chloro-6-methyl-1H-indazol-4-yl)-3-(2,2-diethyl-4-(oxetan-3-yl)piperazin-1-yl)-5-methyl-1H-pyrazol-1-yl)-2-azaspiro[3.3]heptan-2-yl)prop-2-en-1-one] | > 5000 nM |
| C=CC(=O)N1CC2(CC(n3nc(N4CCN(C[C@H]5CCCO5)CC45CCC5)c(-c4c(Cl)c(C)cc5[nH]ncc45)c3C)C2)C1 (single isomer, unassigned) [Example 153a] | > 5000 nM |
| C=CC(=O)N1CC2(CC(n3nc(N4CCN(C[C@H]5CCCO5)CC45CCC5)c(-c4c(Cl)c(C)cc5[nH]ncc45)c3C)C2)C1 (single isomer, unassigned) [Example 153b] | 19 nM |
| C=CC(=O)N1CC2(CC(n3nc(N4CCN(CC5(O)CC5)CC45CCC5)c(-c4c(Cl)c(C)cc5[nH]ncc45)c3C)C2)C1 (single isomer, unassigned) [Example 154a, 1-(6-(4-(5-chloro-6-methyl-1H-indazol-4-yl)-3-(8-((1-hydroxycyclopropyl)methyl)-5,8-diazaspiro[3.5]nonan-5-yl)-5-methyl-1H-pyrazol-1-yl)-2-azaspiro[3.3]heptan-2-yl)prop-2-en-1-one] | > 5000 nM |
| C=CC(=O)N1CC2(CC(n3nc(N4CCN(CC5(O)CC5)CC45CCC5)c(-c4c(Cl)c(C)cc5[nH]ncc45)c3C)C2)C1 (single isomer, unassigned) [Example 154b, 1-(6-(4-(5-chloro-6-methyl-1H-indazol-4-yl)-3-(8-((1-hydroxycyclopropyl)methyl)-5,8-diazaspiro[3.5]nonan-5-yl)-5-methyl-1H-pyrazol-1-yl)-2-azaspiro[3.3]heptan-2-yl)prop-2-en-1-one] | 22 nM |
| C=CC(=O)N1CC2(CC(n3nc(N4CCN(C5CCOCC5)C[C@@]4(CC)C(F)F)c(-c4c(Cl)c(C)cc5[nH]ncc45)c3C)C2)C1 (single isomer, unassigned) [Example 156a] | > 5000 nM |
